From PubChem BioAssay (NCI)
Several values for one entry are separate records, joined by “and”; a condition that tells them apart may be missing. Identical values can stand only once.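 Tested at 5 concentrations; 48 h exposure; 96-well plates; endpoints linearly interpolated, else capped at highest concentration. GI50 is the concentration that inhibits growth by half. TGI denotes the concentration required for complete inhibition of growth.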

Test system: MDA-MB-468 breast
Assay: inhibition of tumour cell growth, NCI panel, 48 h

Compound | GI50 | TGI
COc1ccc(C(=O)N2c3ccccc3Sc3ccccc32)c(F)c1 | 413 nM | > 100000 nM
C[C@]12CC[C@@H]3c4ccc(O)c([N+](=O)[O-])c4CC[C@H]3[C@@H]1CC[C@@H]2NS(=O)(=O)c1ccc(C(F)(F)F)cc1 | 2180 nM | 6290 nM
S=C(N/N=C/c1cc(Cl)cc(Cl)c1)NC12CC3CC(CC(C3)C1)C2 | 16800 nM | > 100000 nM
CNC(=O)Nc1ccc(-c2nc(N3CCOCC3)nc3c2cnn3C2CCOCC2)cc1 | 151 nM | 936 nM
O=C(Nc1ccc(OC(F)(F)F)cc1)c1sccc1NCc1ccnc2ccccc12 | 1520 nM | 19800 nM
CC(C)n1c(/C=C/[C@@H](O)C[C@@H](O)CC(=O)O)c(-c2ccc(F)cc2)c2ccccc21 | 5720 nM and 2550 nM | > 100000 nM
Cc1ccc(C(=O)/C(=C/c2ccc([N+](=O)[O-])cc2)S(=O)Cc2ccccc2)cc1 (stereo unspecified) | 1710 nM | 4070 nM
C#Cc1nc(/C=C/C(=O)NO)cs1 | 1110 nM | 4160 nM
N/C(=N\OC(=O)c1ccccc1)C(C(=O)NOC(=O)c1ccccc1)C1CCCCC1 (stereo unspecified) | 13300 nM | 29400 nM
CN1CCCN(CCNc2nccc(-c3c(-c4cccc(O)c4)nc4sccn34)n2)S1(=O)=O | 9050 nM and 10700 nM | 24100 nM and 53000 nM
COc1cc(Nc2ccnc(N3CCN(c4ccnc5cc(Cl)ccc45)CC3)n2)cc(OC)c1 | 832 nM | > 84900 nM
C[n+]1cc2c3c(ccc2c2ccc4cc5c(cc4c21)OCO5)OCO3 | 1050 nM | 2480 nM
COc1ccc(-c2cc(-c3ccc(Cl)cc3)c(C#N)c(=O)n2CCCCC(=O)Nc2ccccc2N)cc1 | 5680 nM | 67500 nM
Cc1ccc(C(=O)Nc2ccc(CN3CCN(C)CC3)c(C(F)(F)F)c2)cc1C#Cc1cnc(N)c2ccc(F)cc12 | 359 nM | 1190 nM
CC1(C)N=C(N)N=C(N)N1c1ccc(CCc2ccccc2)c(Cl)c1 | 55.5 nM | 1340 nM
N=C(N)c1ccc(-c2ccc(-c3ccc(Cl)cc3Cl)o2)cc1 | 1940 nM | 3680 nM
CCN(CCCCCCCCCCN1CC(=O)N(CCCCCCCCCCN(CC)Cc2ccccc2OC)CC1=O)Cc1ccccc1OC | 1110 nM | 2500 nM
CCN1CCN(Cc2ccc(NC(=O)Nc3ccc(-n4ccc5c(NC(=O)c6ccccc6)nccc54)cc3)cc2C(F)(F)F)CC1 | 1770 nM | 3300 nM
COc1cc(-c2csc(NC(=O)c3cc(C(F)(F)F)cc(C(F)(F)F)c3)n2)cc(OC)c1OC | 1640 nM | 7020 nM
CCNCCCn1c2c(c3cc(OC)c(OC)cc3c1=O)C(=O)c1cc(OC)cnc1-2 | 310 nM | 1440 nM
NS(=O)(=O)c1ccc(N2Cc3cc(Cl)ccc3OC3=C2C(=O)N(CC2CCCCC2)C3=O)cc1 | 962 nM | 2730 nM
COc1cc(/C=C2\CN(C)CC3=C2Nc2nc(SC)[nH]c(=O)c2C3c2cc(OC)c(OC)c(OC)c2)cc(OC)c1OC (stereo unspecified) | 2200 nM | 10600 nM
Cc1cc(N(CCNc2ccnc3cc(Cl)ccc23)Cc2ccc3c(c2)OCO3)nc(N2CCN(C)CC2)n1 | 1870 nM | 4020 nM
